Where a name gives a salt, the structure may show the parent alone. Read-outs that look alike come from different tables or passages of the source.
What was measured:
5HT1a [1] = target: T1, 5HT1a (Homo sapiens, UniProt P08908); test: Secondary radioligand binding assay (Ki); conditions: for α1/D2: Table 24: Selectivity of 5HT1A over average of α1 Receptors; for α1A/D2 / α1B/D2 / α1D/D2: Table 24: Selectivity of 5HT1A over α1 Receptors, ratio of Ki
T1 sequence (P08908 1-422): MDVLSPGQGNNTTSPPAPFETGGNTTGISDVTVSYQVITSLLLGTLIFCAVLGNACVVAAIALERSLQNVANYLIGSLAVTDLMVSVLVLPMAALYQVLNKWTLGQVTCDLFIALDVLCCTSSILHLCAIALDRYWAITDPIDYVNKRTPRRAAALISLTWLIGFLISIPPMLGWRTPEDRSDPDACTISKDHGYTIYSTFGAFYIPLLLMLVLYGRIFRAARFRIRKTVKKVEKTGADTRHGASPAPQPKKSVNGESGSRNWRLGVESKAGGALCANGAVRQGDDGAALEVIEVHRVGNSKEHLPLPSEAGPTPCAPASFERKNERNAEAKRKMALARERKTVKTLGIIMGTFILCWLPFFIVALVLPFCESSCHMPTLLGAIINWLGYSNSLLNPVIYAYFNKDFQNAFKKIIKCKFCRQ
Experimental: (§1) Assay Buffer: Standard Binding Buffer (50 mM Tris-HCl, 10 mM MgCl2, 1 mM EDTA, pH 7.4)
(§2) Membrane Fraction Source: Transiently or stably transfected cell lines (e.g., HEK293, COS, CHO, NIH3T3)
(§3) Radioligand is diluted to five times the assay concentration (see Table 18) in Standard Binding Buffer. Typically, the assay concentration of radioligand is a value between one half the KD and the KD of a particular radioligand at its target. 50 μl aliquots of radioligand are dispensed into the wells of a 96-well plate containing 100 μl of Standard Binding Buffer. Then, duplicate 50 μl aliquots of the test and reference compound dilutions are added.
(§4) The 250 μl reactions are incubated at room temperature and shielded from light (to prevent photolysis of light-sensitive ligands) for 1.5 hours, then harvested by rapid filtration onto Whatman GF/B glass fiber filters pre-soaked with 0.3% polyethyleneimine using a 96-well Brandel harverster. Four rapid 500 μl washes are performed with chilled Standard Binding Buffer to reduce non-specific binding. Filters are placed in 6 ml scintillation tubes and allowed to dry overnight. The next day, 4 ml of EcoScint scintillation cocktail (National Diagnostics) are added to each tube. The tubes are capped, labeled, and counted by liquid scintillation counting. […] The filter mats are dried, then scintillant is melted onto the filters and the radioactivity retained on the filters is counted in a Microbeta scintillation counter.
(§5) Raw data (dpm) representing total radioligand binding (i.e. specific+non-specific binding) are plotted as a function of the logarithm of the molar concentration of the competitor (i.e. test or reference compound).

α1A (Alpha1A) = target: T2, α1A (Alpha1A) (Homo sapiens, UniProt P35348); test: Secondary radioligand binding assay (Ki)
T2 sequence (P35348 1-466): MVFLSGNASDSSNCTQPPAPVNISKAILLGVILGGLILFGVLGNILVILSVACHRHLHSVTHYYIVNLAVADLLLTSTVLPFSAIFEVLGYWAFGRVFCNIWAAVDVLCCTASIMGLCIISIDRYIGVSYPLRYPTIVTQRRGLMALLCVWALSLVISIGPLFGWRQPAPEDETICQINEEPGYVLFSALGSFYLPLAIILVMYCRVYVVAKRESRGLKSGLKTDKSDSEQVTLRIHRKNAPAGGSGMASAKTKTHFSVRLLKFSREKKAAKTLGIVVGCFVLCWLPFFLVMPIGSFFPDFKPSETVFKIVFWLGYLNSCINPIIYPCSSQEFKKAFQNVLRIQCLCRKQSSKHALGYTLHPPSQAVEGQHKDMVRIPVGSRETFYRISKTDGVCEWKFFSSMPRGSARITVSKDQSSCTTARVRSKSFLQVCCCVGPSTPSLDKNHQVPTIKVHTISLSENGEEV
Experimental: as §3, §4, §5
(§6) Adrenergic Receptors: α1A, α1B, α2A, α2B, α2C, β1, β2, β3
(§7) Membrane Fraction Source: Transiently or stably transfected cell lines (e.g. HEK293, COS, CHO, NIH3T3)
(§8) The method is carried out in the manner described for the serotonin receptor assay above, except where described below. Eleven dilutions (5× assay concentration) of the test and reference (see Table 20) compounds are prepared in the appropriate buffer by serial dilution, as previously described. Radioligand is diluted to five times the assay concentration (see Table 21) in the appropriate buffer.
(§9) The 250 μl reactions are incubated at room temperature and shielded from light (to prevent photolysis of light-sensitive ligands) for 1 hour (for α1 receptors, 40 min for α2 receptors, and 1.5 hours for β receptors), then harvested by rapid filtration onto Whatman GF/B glass fiber filters pre-soaked with 0.3% polyethyleneimine using a 96-well Brandel harverster. Four rapid 500-μl washes are performed with chilled distilled water (for α1 and β receptors) or 0.1% polyethyleneimine (for α2 receptors) to reduce non-specific binding. Filters are placed in 6 ml scintillation tubes and allowed to dry overnight and the samples are treated to obtain data as described above.

α1B (Alpha1B) = target: T3, α1B (Alpha1B) (Homo sapiens, UniProt P35368); test: Secondary radioligand binding assay (Ki)
T3 sequence (P35368 1-520): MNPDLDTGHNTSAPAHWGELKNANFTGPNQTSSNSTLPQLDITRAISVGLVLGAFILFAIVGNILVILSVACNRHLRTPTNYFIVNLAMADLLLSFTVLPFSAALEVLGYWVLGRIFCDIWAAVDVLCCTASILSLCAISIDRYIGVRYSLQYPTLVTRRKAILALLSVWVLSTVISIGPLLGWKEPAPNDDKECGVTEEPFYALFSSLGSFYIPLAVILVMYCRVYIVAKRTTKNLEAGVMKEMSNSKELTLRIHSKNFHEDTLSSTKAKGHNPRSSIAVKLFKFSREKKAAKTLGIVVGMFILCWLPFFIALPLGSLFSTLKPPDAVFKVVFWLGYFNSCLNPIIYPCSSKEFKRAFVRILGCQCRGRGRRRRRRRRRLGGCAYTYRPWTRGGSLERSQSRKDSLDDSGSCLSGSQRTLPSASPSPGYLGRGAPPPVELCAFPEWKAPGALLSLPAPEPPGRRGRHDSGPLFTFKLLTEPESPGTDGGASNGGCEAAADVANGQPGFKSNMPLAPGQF
Experimental: as §3, §4, §5, §6, §7, §8, §9

Alpha1D = target: T4, Alpha1D (Homo sapiens, UniProt P25100); test: Secondary radioligand binding assay (Ki)
T4 sequence (P25100 1-572): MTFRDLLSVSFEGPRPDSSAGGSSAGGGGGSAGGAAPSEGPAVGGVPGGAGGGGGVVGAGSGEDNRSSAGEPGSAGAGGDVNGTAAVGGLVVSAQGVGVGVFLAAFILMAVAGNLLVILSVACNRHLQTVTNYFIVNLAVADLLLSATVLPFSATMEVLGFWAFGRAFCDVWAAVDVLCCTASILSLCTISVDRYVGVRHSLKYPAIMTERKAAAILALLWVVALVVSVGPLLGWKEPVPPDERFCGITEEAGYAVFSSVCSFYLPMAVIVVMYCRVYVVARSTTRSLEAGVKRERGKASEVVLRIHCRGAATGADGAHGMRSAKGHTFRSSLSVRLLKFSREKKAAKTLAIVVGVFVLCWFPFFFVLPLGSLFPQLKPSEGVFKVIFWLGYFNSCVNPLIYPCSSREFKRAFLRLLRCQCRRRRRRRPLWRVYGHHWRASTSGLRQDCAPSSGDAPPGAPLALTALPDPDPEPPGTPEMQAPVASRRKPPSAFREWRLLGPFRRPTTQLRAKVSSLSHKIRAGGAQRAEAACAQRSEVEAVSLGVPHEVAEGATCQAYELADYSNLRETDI
Experimental: as §3, §4, §5, §6, §7, §8, §9

5-HT1B = 5-HT1B (Homo sapiens, UniProt P28222); test: Secondary radioligand binding assay (Ki)
5-HT1B, sequence (P28222 whole entry, species assumed): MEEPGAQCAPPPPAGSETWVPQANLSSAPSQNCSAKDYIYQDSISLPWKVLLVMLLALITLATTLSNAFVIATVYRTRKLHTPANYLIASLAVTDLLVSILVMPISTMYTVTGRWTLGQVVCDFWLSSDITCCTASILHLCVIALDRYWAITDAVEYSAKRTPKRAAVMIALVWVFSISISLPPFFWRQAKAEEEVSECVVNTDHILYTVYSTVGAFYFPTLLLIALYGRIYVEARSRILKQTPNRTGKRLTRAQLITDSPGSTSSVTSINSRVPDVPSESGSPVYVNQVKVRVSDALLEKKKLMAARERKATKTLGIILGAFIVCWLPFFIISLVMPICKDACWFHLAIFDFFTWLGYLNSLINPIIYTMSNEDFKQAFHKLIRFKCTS
Experimental: as §1, §2, §3, §4, §5

5HT1a [2] = target: T1, 5HT1a; test: Primary radioligand binding assay (NIMH PDSP); conditions: primary radiobinding assay, [3H]8-OH-DPAT; as to 5ht1a (% inh): test concentration or dose not given here
dopamine D1 [3] = target: T5, dopamine D1 (Homo sapiens, UniProt P21728); test: Primary radioligand binding assay (NIMH PDSP); conditions: primary radiobinding assay, [3H]SCH233930; also: test concentration or dose not given here
T5 sequence (P21728 whole entry): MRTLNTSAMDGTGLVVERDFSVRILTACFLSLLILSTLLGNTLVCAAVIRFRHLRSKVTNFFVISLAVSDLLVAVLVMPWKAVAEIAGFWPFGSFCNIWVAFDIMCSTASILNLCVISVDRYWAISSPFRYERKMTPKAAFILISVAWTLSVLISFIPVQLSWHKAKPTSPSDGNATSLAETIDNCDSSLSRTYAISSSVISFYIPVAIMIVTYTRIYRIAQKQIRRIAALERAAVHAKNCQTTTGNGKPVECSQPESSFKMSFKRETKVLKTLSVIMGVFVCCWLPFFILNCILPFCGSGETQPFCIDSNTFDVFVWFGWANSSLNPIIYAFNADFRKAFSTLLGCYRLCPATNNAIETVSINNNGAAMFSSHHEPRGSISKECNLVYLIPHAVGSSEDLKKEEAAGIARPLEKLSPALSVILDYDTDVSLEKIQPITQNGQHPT

dopamine D2 = dopamine D2 (Homo sapiens, UniProt P14416); test: Primary radioligand binding assay (NIMH PDSP); conditions: primary radiobinding assay, [3H]N-methylspiperone; as to 5ht1a (% inh): test concentration or dose not given here
dopamine D2, sequence (P14416 whole entry, species assumed): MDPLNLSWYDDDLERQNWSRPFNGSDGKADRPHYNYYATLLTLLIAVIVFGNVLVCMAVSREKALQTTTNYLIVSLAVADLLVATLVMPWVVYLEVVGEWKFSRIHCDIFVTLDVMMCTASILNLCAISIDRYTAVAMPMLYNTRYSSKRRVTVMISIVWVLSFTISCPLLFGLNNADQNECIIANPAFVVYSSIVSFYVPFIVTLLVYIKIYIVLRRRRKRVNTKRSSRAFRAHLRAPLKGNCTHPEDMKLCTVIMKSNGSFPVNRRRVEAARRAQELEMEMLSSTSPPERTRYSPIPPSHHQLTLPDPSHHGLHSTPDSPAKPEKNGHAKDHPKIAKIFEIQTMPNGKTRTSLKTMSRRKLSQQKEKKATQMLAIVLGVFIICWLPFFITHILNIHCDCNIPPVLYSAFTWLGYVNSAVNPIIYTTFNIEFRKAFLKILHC

dopamine D3 = dopamine D3 (Homo sapiens, UniProt P35462); test: Primary radioligand binding assay (NIMH PDSP); conditions: primary radiobinding assay, N-methylspiperone; also: test concentration or dose not given here
dopamine D3, sequence (P35462 whole entry): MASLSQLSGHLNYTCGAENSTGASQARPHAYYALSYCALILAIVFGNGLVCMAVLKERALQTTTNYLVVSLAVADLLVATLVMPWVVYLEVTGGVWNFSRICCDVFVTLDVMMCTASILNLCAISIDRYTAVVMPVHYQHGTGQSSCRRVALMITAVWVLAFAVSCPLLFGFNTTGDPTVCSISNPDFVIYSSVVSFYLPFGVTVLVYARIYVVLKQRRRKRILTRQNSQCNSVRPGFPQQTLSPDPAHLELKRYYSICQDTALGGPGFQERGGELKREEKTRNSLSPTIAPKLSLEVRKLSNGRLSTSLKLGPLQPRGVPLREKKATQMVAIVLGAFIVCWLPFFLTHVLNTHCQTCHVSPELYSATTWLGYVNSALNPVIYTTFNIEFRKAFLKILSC

dopamine D1 [4] = target: T5, dopamine D1; test: Secondary radioligand binding assay (Ki)
Experimental: as §3, §4, §5
Assay Buffers: Dopamine Binding Buffer (50 mM NaCl, 50 mM HEPES-HCl, 5 mM MgCl2, 0.5 mM EDTA, pH 7.4)
as §7
The method is carried out in the manner described for the serotonin receptor assay above. Eleven dilutions (5× assay concentration) of the test and reference (see Table 19) compounds are prepared in Dopamine Binding Buffer by serial dilution, as previously described. Radioligand is diluted to five times the assay concentration (see Table 20) in Dopamine Binding Buffer.

5-HT2A = 5-HT2A (Homo sapiens, UniProt P28223); test: Secondary radioligand binding assay (Ki)
5-HT2A, sequence (P28223 whole entry, species assumed): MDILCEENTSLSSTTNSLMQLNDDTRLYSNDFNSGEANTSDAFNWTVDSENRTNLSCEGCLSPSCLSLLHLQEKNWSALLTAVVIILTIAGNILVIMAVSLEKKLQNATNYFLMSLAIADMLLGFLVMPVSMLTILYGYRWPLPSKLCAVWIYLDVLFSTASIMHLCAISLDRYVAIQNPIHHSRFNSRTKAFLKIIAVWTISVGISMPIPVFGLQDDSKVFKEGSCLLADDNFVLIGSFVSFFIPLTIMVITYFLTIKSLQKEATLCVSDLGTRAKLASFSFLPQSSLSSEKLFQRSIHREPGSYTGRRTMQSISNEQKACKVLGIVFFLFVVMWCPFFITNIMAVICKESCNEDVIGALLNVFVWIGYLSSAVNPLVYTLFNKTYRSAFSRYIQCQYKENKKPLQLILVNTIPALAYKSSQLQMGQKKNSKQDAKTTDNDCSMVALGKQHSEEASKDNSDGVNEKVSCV
Experimental: as §1, §2, §3, §4, §5

5-HT7 = 5-HT7 (Homo sapiens, UniProt P34969); test: Secondary radioligand binding assay (Ki)
5-HT7, sequence (P34969 whole entry, species assumed): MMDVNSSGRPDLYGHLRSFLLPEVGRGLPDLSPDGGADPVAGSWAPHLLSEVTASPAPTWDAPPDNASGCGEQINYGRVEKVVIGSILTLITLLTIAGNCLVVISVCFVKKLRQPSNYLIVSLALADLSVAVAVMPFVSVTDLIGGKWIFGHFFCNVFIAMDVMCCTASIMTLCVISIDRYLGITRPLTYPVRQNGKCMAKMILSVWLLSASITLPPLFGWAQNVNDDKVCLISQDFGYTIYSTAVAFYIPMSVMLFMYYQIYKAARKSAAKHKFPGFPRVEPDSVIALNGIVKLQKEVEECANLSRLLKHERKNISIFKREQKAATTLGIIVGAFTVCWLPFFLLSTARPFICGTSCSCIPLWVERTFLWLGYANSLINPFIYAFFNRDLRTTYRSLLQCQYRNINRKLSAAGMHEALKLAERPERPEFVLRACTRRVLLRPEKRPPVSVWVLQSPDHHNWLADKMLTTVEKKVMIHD
Experimental: as §1, §2, §3, §4, §5

[5] = read-out: Experimental Receptor Binding Data-Ki ALPHA_1A, Table 25, GPCR panel
[6] = read-out: Experimental Receptor Binding Data-Ki ALPHA_1B, Table 25, GPCR panel
[7] = read-out: Experimental Receptor Binding Data-Ki ALPHA_1D, Table 25, GPCR panel
[8] = read-out: Experimental Receptor Binding Data-Ki D1, Table 25, GPCR panel

SMILES | α1/D2 (5HT1a [1]) | α1A/D2 (5HT1a [1]) | α1B/D2 (5HT1a [1]) | α1D/D2 (5HT1a [1]) | Ki (5HT1a [1]; read-out: Ki 5HT1A) [nM] | Ki (α1A (Alpha1A); [5]) [nM] | Ki (α1A (Alpha1A); read-out: Kiα1A) [nM] | Ki (α1B (Alpha1B); [6]) [nM] | Ki (α1B (Alpha1B); read-out: Kiα1B) [nM] | Ki (Alpha1D; [7]) [nM] | Ki (Alpha1D; read-out: Kiα1D) [nM] | 5ht1a (% inh) (5HT1a [2]) | D1 (% inh) (dopamine D1 [3]) | D2 (% inh) (dopamine D2) | D3 (% inh) (dopamine D3) | Ki (dopamine D1 [4]; [8]) [nM] | Ki (5-HT2A) [nM] | Ki (5-HT7) [nM] | Ki (5HT1a [1]) [nM] | Ki (5-HT1B) [nM] | other results
COc1ccc2c(c1)C(=O)N(CCN1CCN(c3ccccc3OC)CC1)C2 [GFR-VII-280] | 6.4 | 4.5 | 11.1 | 3.5 | 3.5 | 15.9 | 15.9 | 38.7 | 38.7 | 12.4 | 12.4 | 92.4 | 29.3 | 66.6 | 98.1 | – | – | – | – | – | Ki (5HT1a [1]; read-out: Experimental Receptor Binding Data-Ki 5HT1A, Table 25, GPCR panel): 3.5 nM; Ki (5-HT1B; read-out: Experimental Receptor Binding Data-Ki 5HT1B, Table 25, GPCR panel): 306 nM
COc1ccc2c(c1)CN(CCCN1CCN(c3ccccc3OC)CC1)C2=O [GFR-VII-290] | 12.7 | 3.2 | 32.0 | 2.9 | 19 | 59.9 | 59.9 | 608 | 608 | 56 | 56 | 98.3 | 54.5 | 82.1 | 94.7 | 2730 | 1000 | 732 | – | – | –
COc1cc2c(cc1OC)C(=O)N(CCCCN1CCN(c3ccccc3OC)CC1)C2 [GFR-VII-285] | 0.4 | 0.04 | 0.8 | 0.2 | – | 0.9 | 0.9 | 19.3 | 19.3 | 4.4 | 4.4 | 93.3 | 91.3 | 96.2 | 100.5 | 531 | 270 | 228 | 23 | 130 | –
CC1Cc2ccccc2N1C(=O)CN1CCN(Cc2ccccc2)CC1 (stereo not shown) [STT-00185638, 2-[-4-(benzyl)-piperazin-1-yl]-1-(2-methy-2,3-dihydro-indol-1-yl)-ethanone] | – | – | – | – | – | – | – | – | – | – | – | 64.9 | 50.8 | 66.2 | 63.6 | – | – | 4360 | 7080 | – | Ki (α1A (Alpha1A)): 2060 nM; Ki (dopamine D1 [4]): 6360 nM
COc1ccc2c(c1)C(=O)N(CCCN1CCN(c3ccccc3OC)CC1)C2 [GFR-VII-273] | 24.0 | 10.0 | 49.7 | 12.5 | – | 64.9 | 64.9 | 323 | 323 | 81.1 | 81.1 | 92.5 | 49.5 | 85 | 94.1 | – | 956 | 545 | 6.5 | 362 | –
COc1ccc2c(c1)C(=O)N(CCN1CCN(c3ccccc3OC)CC1)C2 [GFR-VII-280-HCl] | 5.9 | 3.5 | 12.1 | 2.1 | – | – | – | – | – | – | – | 92 | 30 | 69.8 | 95.7 | – | – | 529 | 2.4 | 378 | Ki (α1A (Alpha1A)): 8.5 nM; Ki (α1B (Alpha1B)): 29.1 nM; Ki (Alpha1D): 5.1 nM
